Values belong to the compound of their own block, whether it stands above or below them.
Legend:
human SCD promoter = assay: Human SCD promoter-luciferase reporter (pSCD-500) in transfected HepG2 cells; format: cell-based; conditions: for SCD promoter activity: HepG2 cells co-transfected with mature SREBP-1a, in the presence of cholesterol, fatty acids as albumin complexes (data not shown)
Method: The decrease in promoter activity in the reporter construct correlated with decreases in endogenous SCD mRNA and protein levels. […] Our studies indicate that like the mouse SCD1 gene, the human SCD gene is regulated by polyunsaturated fatty acids and cholesterol at the level of gene transcription and that SREBP plays a role in the transcriptional activation of this gene. Cell Culture and DNA transfections—HepG2 cells, were grown in Low Glucose DMEM supplemented with 10% Fetal Bovine Serum and 1% Penicillin/Streptomycin solution and maintained at 37 C, 5% CO2 in a humidified incubator. Cells were passaged into 6 cm dishes to give 40-70% confluence in about 12-16 hours. Cells were then transfected with 5 μg plasmid DNA per plate of pSCD-500 or the Basic PGL3 reporter as well as well as the pRL-TK, internal controls (Promega) using the LT-1 transfection reagent (Pan Vera). After 48 hours, cells were rinsed with PBS and then treated in Williams' E Media, a fatty acid-free media, containing insulin, dexamethasone, and appropriate concentrations of albumin-conjugated fatty acids as indicated in figures and legends. Cells were also treated with ethanol alone (as control) or cholesterol (10 μg/mL) and 25-OH cholesterol (1 μg/mL) dissolved in ethanol. After an additional 24 h, extracts were prepared and assayed for luciferase activity. Non-transfected cells were used as the blank and Renilla Luciferase was used as an internal control. Cell extracts were assayed for protein according to Lowry, and all results were normalized to protein concentration as well as to renilla luciferase counts. Each experiment was repeated at least three times, and all data are expressed as means±SEM. […] To observe the regulatory effects of mature SREBP-1a and PUFAs on the activity of SCD promoters, HepG2 hepatic cells were transiently co-transfected with 20 ng (per 6-cm dish) of plasmid DNA containing the human SCD promoter as described above but this time the transfections were carried out in the presence of cholesterol to inhibit the maturation of the endogenous SREBP and thus ensure that there was little mature form of the endogenous SREBP present in the cells. After transfection, the cells were then treated with, arachidonic acid, EPA and DHA as albumin complexes and luciferase activity was then assayed using a luminometer. If SREBP mediates PUFA repression of the human SCD gene, SCD promoter activity would not diminish upon treatment the transfected cells with PUFA.

[1] = system: human SCD mRNA expression; assay: Northern blot of SCD mRNA in treated HepG2 cells; format: cell-based; conditions: range of doses, cholesterol 10 μg/ml with 1 μg/ml 25-hydroxycholesterol, FIG. 15
Method: FIG. 15. Human HepG2 cells cultured and treated with a range of doses of arachidonic acid, DHA or 10 μg/ml cholesterol or EPA as indicated. Total mRNA was isolated and quantified. Isolation and Analysis of RNA-Total RNA was isolated from HepG2 cells using the acid guanidinium-phenol-chloroform extraction method. Twenty micrograms of total RNA was separated by 0.8% agarose/2.2 M formaldehyde gel electrophoresis and transferred onto nylon membrane. The membrane was hybridized with ^32P-labeled human SCD cDNA probe generated by PCR as follows: pAL15 probe was used as control for equal loading. We tested whether the human SCD gene expression was also repressed by cholesterol and polyunsaturated fatty acids. Human HepG2 cells were cultured and then treated with 100 μM arachidonic acid, DHA or 10 μg/ml cholesterol and 1 μg/ml of 25-hydroxycholesterol cholesterol as we have described previously. Total mRNA was isolated and subjected to northern blot analysis using a probe corresponding to the human cDNA and generated by the PCR method using primers based on published human SCD cDNA sequence.

SCD1 mRNA = conditions: known from the literature; cited from earlier work
SCD = biological target: T1, SCD (Homo sapiens, UniProt O00767); conditions: known from the literature; cited from earlier work
T1 sequence (O00767 1-359): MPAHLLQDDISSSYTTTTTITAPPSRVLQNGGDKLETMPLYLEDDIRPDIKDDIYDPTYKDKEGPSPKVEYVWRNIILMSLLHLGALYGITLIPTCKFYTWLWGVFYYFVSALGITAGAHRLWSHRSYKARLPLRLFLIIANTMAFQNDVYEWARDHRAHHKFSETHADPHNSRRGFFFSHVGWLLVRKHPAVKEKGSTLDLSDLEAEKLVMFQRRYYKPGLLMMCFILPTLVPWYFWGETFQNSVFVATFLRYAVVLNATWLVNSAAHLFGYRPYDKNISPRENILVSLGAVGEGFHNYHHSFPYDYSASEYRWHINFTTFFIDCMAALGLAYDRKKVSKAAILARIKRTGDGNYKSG

SCD1 = biological target: T2, SCD1 (Mus musculus, UniProt P13516); assay: SCD1 desaturase activity assay, transfer of 3H from 3H-stearoyl CoA to water in liver microsomes; format: biochemical; conditions: for inhibition of SCD1: pre-conjugated to CoA (microsomes incubated with CoA and ATP before 3H-stearoyl CoA)
T2 construct: from tissue; host or cells: mouse liver microsomes (wild type, after a high carbohydrate fat-free diet)
T2 sequence (P13516 1-355): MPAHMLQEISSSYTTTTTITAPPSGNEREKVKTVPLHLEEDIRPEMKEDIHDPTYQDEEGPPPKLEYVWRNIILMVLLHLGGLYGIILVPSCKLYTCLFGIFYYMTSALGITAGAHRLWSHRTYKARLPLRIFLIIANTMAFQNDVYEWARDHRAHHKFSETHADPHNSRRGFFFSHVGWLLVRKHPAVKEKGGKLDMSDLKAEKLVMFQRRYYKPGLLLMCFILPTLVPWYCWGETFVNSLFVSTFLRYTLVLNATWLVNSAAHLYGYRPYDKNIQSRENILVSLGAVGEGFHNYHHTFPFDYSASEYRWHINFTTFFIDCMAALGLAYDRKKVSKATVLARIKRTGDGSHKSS
Method: Microsomes from wild type livers were used for this experiment. A turnover number for SCD1 activity under these conditions was estimated at 2 nmol/min/mg protein, which is about half that observed at 37° C.
Livers were collected from wild type and SCD1 knockout mice following 3 days on a high carbohydrate fat-free diet (this induces SCD1 expression in liver by about 50-fold), homogenized and a portion used for microsome purification. ^3H-water production was determined for 15 minutes at RT (room temperature) in both homogenate and microsome preparations at equivalent protein concentration, followed by quenching the reaction with acid and using charcoal to separate substrate from product. Quenching the sample with acid prior to the addition of substrate offers a blank, or control containing background radioactivity without any desaturation reaction. […] The “window”, or SCD1-dependent desaturation in this assay, is a highly visible and significant 160-fold difference between wild type and SCD1 knockout microsomes.
Microsomes from wild type mice were used to test the effectiveness of three known inhibitors of SCD1: conjugated linoleic acid (CLA), 9-thia stearic acid (9-thia) and sterculic acid (SA). […] This experiment establishes that SCD1 activity can be inhibited with known inhibitors but they appear to require conjugation with CoA. An important use of this screening assay is to find small molecules that are potent inhibitors of SCD1 biological activity without conjugation to CoA.
In a preferred embodiment, the assay makes use of ^3H-stearoyl CoA (with the ^3H on the 9 and 10 carbon atoms), the substrate for SCD1. Desaturation by SCD1, produces oleoyl CoA and 3H-water molecules. The reaction is run at room temperature, quenched with acid and then activated charcoal is used to separate unreacted substrate from the radioactive water product. The charcoal is sedimented and amount of radioactivity in the supernatant is determined by liquid scintillation counting. This assay is specific for SCD1-dependent desaturation as judged by the difference seen when comparing the activity in wild type and SCD1-knockout tissues. Further, the method is easily adapted to high throughput as it is cell-free, conducted at room temperature and is relatively brief (1 hour reaction time period versus previous period of 2 days). This procedure is illustrated more fully in FIGS. 17 to 20.

SCD protein = assay: Western blot of SCD protein in treated HepG2 cells; format: cell-based, human; conditions: western blot of protein extracts (data not shown)
Method: Immunoblotting—Cell extracts were prepared from HepG2 cells that had been treated with the various fatty acids or cholesterol as described by Heinemann et al (17). The same amount of protein (60 μg) from each fraction was subjected to 10% SDS-polyacrylamide gel electrophoresis and transferred to Immobilon-P transfer membranes at 4° C. After blocking with 10% non-fat milk in TBS buffer (pH 8.0) plus 0.5% Tween at 4° C. overnight, the membrane was washed and incubated with rabbit anti-rat SCD as primary antibody (17) and goat anti-rabbit IgG-HRP conjugate as the secondary antibody. Visualization of the SCD protein was performed with ECL western blot detection kit. We tested whether the human SCD gene expression was also repressed by cholesterol and polyunsaturated fatty acids. Human HepG2 cells were cultured and then treated with 100 μM arachidonic acid, DHA or 10 μg/ml cholesterol and 1 μg/ml of 25-hydroxycholesterol cholesterol as we have described previously. Total mRNA was isolated and subjected to northern blot analysis using a probe corresponding to the human cDNA and generated by the PCR method using primers based on published human SCD cDNA sequence.

[2] = added as the free fatty acid, microsomes from wild type mice (FIG. 19 panel A)

Compound: CC/C=C\C/C=C\C/C=C\C/C=C\C/C=C\CCCC(=O)O [EPA]
SCD promoter activity (human SCD promoter): continued to repress SCD promoter activity with only a slight attenuation

Compound: CC/C=C\C/C=C\C/C=C\C/C=C\C/C=C\C/C=C\CCC(=O)O [DHA]
human SCD mRNA expression [1]: decreased the human SCD mRNA expression in a dose dependent manner | SCD promoter activity (human SCD promoter): continued to repress SCD promoter activity with only a slight attenuation

Compound: CCCCC/C=C\C/C=C\C/C=C\C/C=C\CCCC(=O)O [AA, arachidonic acid]
human SCD mRNA expression [1]: decreased the human SCD mRNA expression in a dose dependent manner | SCD promoter activity (human SCD promoter): continued to repress SCD promoter activity with only a slight attenuation

Compound: CCCCC/C=C\C=C\CCCCCCCCC(=O)O [Cis-12, trans-10 conjugated linoleic acid]
abundance of SCD1 mRNA (SCD1 mRNA): reduce the abundance of SCD1 mRNA | inhibition of SCD enzyme activity (SCD): effectively inhibit SCD enzyme activity

suppression of SCD1 activity (SCD1; [2]): none were effective | inhibition of SCD1 (SCD1; FIG. 19 panel B): graded inhibition | suppression of SCD1 activity (SCD1; pre-conjugated to CoA, preincubation condition, FIG. 19 panel B): ~100%
Compound: CCCCCCCCC1=C(CCCCCCCC(=O)O)C1 [sterculic acid, 8-(2-octyl-cyclopropenyl)octanoic acid]

Compound: CCCCCC/C=C/C=C\CCCCCCCC(=O)O [Cis-9, trans-11 conjugated linoleic acid]
inhibition of SCD enzyme activity (SCD): does not

suppression of SCD1 activity (SCD1; [2]): none were effective | inhibition of SCD1 (SCD1; FIG. 19 panel B): graded inhibition
Compound: conjugated linoleic acid

Compound: CC(C)CCC[C@@H](C)[C@H]1CC[C@H]2[C@@H]3CC=C4C[C@@H](O)CC[C@]4(C)[C@H]3CC[C@]12C [cholesterol]
human SCD mRNA expression [1]: decreased the human SCD mRNA expression in a dose dependent manner | SCD promoter-luciferase activity (human SCD promoter; transiently transfected HepG2 cells): decreased the SCD promoter-luciferase activity | levels of the SCD protein (SCD protein): decreased the levels of the SCD protein
